The results in this text go back to patent US9072293B2, “Cyclopropenes and method for applying cyclopropenes to agricultural products or crops” (Erum Biotechnologies Inc., priority 2010, dated 2015).

Several values for one entry are separate records, joined by “and”; a condition that tells them apart may be missing. Identical values can stand only once.

The nature of data set [1]: Relative chemical stability of cyclopropenes measured by 1H-NMR. Type of data set: physicochemical. As to conditions: 1H-NMR, CDCl3, stored at −20° C. or room temperature; relative to chain length 1. The source says: A variety of analysis methods can be used to analyze the derivatives of Formula 6, since the absorbance of cyclopropenes containing an aryl group can be easily measured in the UV range. It can be confirmed that the chemical stability of the derivatives increases, when the length of chains to link an aryl ring to a cyclopropene ring is 2 or more. […] It is supposed that the stability of cyclopropenes increase due to the fact that π electrons of aryl groups affect π electrons of cyclopropenes.
The following Table 1 summarizes the relative chemical stability of cyclopropenes having a chain length of 2, 3, 4 or 5, based on the chemical stability of cyclopropenes having a chain length of 1. In the case of cyclopropene having a chain length of 1, the structure thereof can be confirmed via ^1H-NMR within one hour following synthesis (degraded to a level of 50% or more within one hour at 30° C.). In the case of cyclopropene having a chain length of zero, synthesis thereof was attempted in accordance with the present invention, but was impossible by a conventional method. Meanwhile, in the case of cyclopropenes having a chain length of 2 or more, the structure thereof can be precisely confirmed by ^1H-NMR as well as ^13C-NMR. The stability of these cyclopropenes was measured by ^1H-NMR while NMR cells (CDCl3) were stored at −20° C. or room temperature. In particular, cyclopropenes having chains of 3 or more were so stable that their half-life reached 5 days or longer at −20° C. or lower. In ^1H-NMR analysis, the stability was evaluated by comparing integral values at 4 to 6.5 ppm (1H) and 0.8 to 0.9 ppm (2H), characteristic peaks of 1-alkylcyclopropenes, using a small amount of 1,1,3,3-tetramethylurea (2.80 ppm) as an internal standard. Furthermore, the stability was also qualitatively evaluated by comparing integral value of the peak newly generated adjacent to the peak of the olefin proton of cyclopropene ring, as a 1-alkylcyclopropene compound is decomposed.

The test system of a further data set is tomato. The experiment in a line: Experimental Example 3: Efficacy test on tomato for other drugs (emulsion and oil-based formulation). Type of data set: in vivo. Conditions: individual tomatoes n=4. As to the method:
At this time, the tops of tomatoes most early turned red, while the bottoms thereof most lately turned red. For this reason, in order to accurately evaluate the difference in reddening, the coloring evaluated was based on the area of red color, rather than the color of tomatoes. […] Accordingly, the grade level is proportional to the rate at which the tomatoes ripened.
1.0 mM emulsions and oil-based formulations of four agents, i.e., 1-(2-(4-methoxyphenyl)ethyl)cyclopropene, 1-(3-(4-methoxyphenyl)propyl)cyclopropene, 1-(3-phenoxypropyl)cyclopropene and 1-(4-phenoxybutyl)cyclopropene were prepared in accordance with Examples 1 and 2.
The tomatoes were screened in the same manner as in Experimental Example 1 and divided into 9 groups (n=4), i.e., a non-treated group and 4 emulsion-type agent groups and 4 oil-based formulation-type agent groups. Tomatoes were treated with the previously prepared agent using a household sprayer such that the surface thereof was saturated. The tomatoes were stood at room temperature (25-30° C.) for 3 days and a reddening level thereof was evaluated based on grades of 0 to 5.

As for `C1=C(CCCCOc2ccccc2)C1` [(4-Phenoxybutyl), 1-(4-phenoxybutyl)cyclopropene], the “Stability (relative chemical stability, based on cyclopropenes having a chain length of 1)” value in data set [1] is listed as >>10. The “reddening level (grade 0 to 5)” value was 0 (an area in which the surface of tomato was colored in pink was 10% or less) (2×) and 1 (an area in which the surface of tomato was completely colored in red was 10 to 40%) and 2 (an area in which the surface of tomato was completely colored in red was 40 to 70%) in the data set with tomato (1.0 mM Emulsion, Day 0, room temperature (25-30° C.)); 0 (an area in which the surface of tomato was colored in pink was 10% or less) (2×) and 2 (an area in which the surface of tomato was completely colored in red was 40 to 70%) (2×) in the data set on tomato (1.0 mM Emulsion, Day 1, room temperature (25-30° C.)); 1 (an area in which the surface of tomato was completely colored in red was 10 to 40%) (2×) and 3 (an area in which the surface of tomato was completely colored in red was 70% or more and the bottom area remained green) (2×) with tomato (1.0 mM Emulsion, Day 2, room temperature (25-30° C.)); 2 (an area in which the surface of tomato was completely colored in red was 40 to 70%) (2×) and 4 (2×) with tomato (1.0 mM Emulsion, Day 3, room temperature (25-30° C.)); 0 (an area in which the surface of tomato was colored in pink was 10% or less) (2×) and 1 (an area in which the surface of tomato was completely colored in red was 10 to 40%) and 2 (an area in which the surface of tomato was completely colored in red was 40 to 70%) in the data set on tomato (1.0 mM Oil-based formulation, Day 0, room temperature (25-30° C.)); 0 (an area in which the surface of tomato was colored in pink was 10% or less) (2×) and 1 (an area in which the surface of tomato was completely colored in red was 10 to 40%) and 2 (an area in which the surface of tomato was completely colored in red was 40 to 70%) with tomato (1.0 mM Oil-based formulation, Day 1, room temperature (25-30° C.)). Also, the “reddening level (grade 0 to 5)” value in the data set with tomato (1.0 mM Oil-based formulation, Day 2, room temperature (25-30° C.)) was 0 (an area in which the surface of tomato was colored in pink was 10% or less) and 1 (an area in which the surface of tomato was completely colored in red was 10 to 40%) and 2 (an area in which the surface of tomato was completely colored in red was 40 to 70%) (2×); with tomato (1.0 mM Oil-based formulation, Day 3, room temperature (25-30° C.)), 1 (an area in which the surface of tomato was completely colored in red was 10 to 40%) (2×) and 3 (an area in which the surface of tomato was completely colored in red was 70% or more and the bottom area remained green) (2×).
